In ChEMBL document CHEMBL1201862, “PubChem BioAssay data set” (2004):
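A five-concentration, 48-hour dose response in 96-well plates underlies each endpoint, interpolated linearly between surrounding concentrations. The concentration for 50% growth inhibition is given as GI50.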 Activity calls are given as the source filed them. Rule as the data show it: active = GI50 up to about 1.1 µM and inactive = higher.

Tests used:
Test in all cases: DTP human tumour cell line panel, 48 h
[1] = tested on: Hs-578T
[2] = tested on: KM12
[3] = tested on: SNB-75
[4] = tested on: NCI/ADR-RES
[5] = tested on: NCI-H226
[6] = tested on: HOP-92
[7] = tested on: K562
[8] = tested on: M14
[9] = tested on: LOX IMVI
[10] = tested on: IGROV-1
[11] = tested on: SN12C
[12] = tested on: SK-MEL-5
[13] = tested on: OVCAR-4
[14] = tested on: ACHN
[15] = tested on: HCC 2998
[16] = tested on: MCF7
[17] = tested on: NCI-H23
[18] = tested on: Malme-3M
[19] = tested on: SK-OV-3
[20] = tested on: RPMI-8226
[21] = tested on: BT-549
[22] = tested on: OVCAR-8
[23] = tested on: RXF 393
[24] = tested on: SF-268
[25] = tested on: A549
[26] = tested on: UACC-62
[27] = tested on: OVCAR-3
[28] = tested on: SW-620
[29] = tested on: MDA-N
[30] = tested on: A498
[31] = tested on: MDA-MB-435
[32] = tested on: SR
[33] = tested on: 786-0
[34] = tested on: PC-3
[35] = tested on: NCI-H460
[36] = tested on: UO-31
[37] = tested on: CCRF-CEM
[38] = tested on: HT-29
[39] = tested on: SF-539
[40] = tested on: SF-295
[41] = tested on: HOP-62
[42] = tested on: OVCAR-5
[43] = tested on: MDA-MB-231
[44] = tested on: HL-60
[45] = tested on: SK-MEL-2
[46] = tested on: TK-10
[47] = tested on: EKVX
[48] = tested on: UACC-257
[49] = tested on: HCT-15
[50] = tested on: MOLT-4
[51] = tested on: COLO 205
[52] = tested on: SK-MEL-28
[53] = tested on: DU-145
[54] = tested on: U-251
[55] = tested on: T47D
[56] = tested on: CAKI-1
[57] = tested on: SNB-19
[58] = tested on: NCI-H522
[59] = tested on: HCT-116

With `COc1ccccc1CC1(O)OC(=O)c2ccccc21` (stereo not drawn) the GI50 [1] was > 100 µM (inactive), the GI50 [2] was > 100 µM (inactive) and the GI50 [3] was > 100 µM (inactive). The GI50 [4] was > 100 µM (inactive), the GI50 [5] was > 100 µM (inactive) and the GI50 [6] was > 100 µM (inactive). The GI50 [7] was > 100 µM (inactive), the GI50 [8] was > 100 µM (inactive) and the GI50 [9] was > 100 µM (inactive). The GI50 [10] was > 100 µM (inactive), the GI50 [11] was > 100 µM (inactive) and the GI50 [12] was > 100 µM (inactive). For the same compound, the GI50 [13] was > 100 µM (inactive), the GI50 [14] was > 100 µM (inactive) and the GI50 [15] was > 100 µM (inactive). The GI50 [16] was > 100 µM (inactive), the GI50 [17] was > 100 µM (inactive) and the GI50 [18] was > 100 µM (inactive). The GI50 [19] was > 100 µM (inactive), the GI50 [20] was > 100 µM (inactive) and the GI50 [21] was > 100 µM (inactive). For the same compound, the GI50 [22] was > 100 µM (inactive), the GI50 [23] was > 100 µM (inactive) and the GI50 [24] was > 100 µM (inactive). For the same compound, the GI50 [25] was > 100 µM (inactive), the GI50 [26] was > 100 µM (inactive) and the GI50 [27] was > 100 µM (inactive). For the same compound, the GI50 [28] was > 100 µM (inactive), the GI50 [29] was > 100 µM (inactive) and the GI50 [30] was > 100 µM (inactive). The GI50 [31] was > 100 µM (inactive), the GI50 [32] was > 100 µM (inactive) and the GI50 [33] was > 100 µM (inactive). The GI50 [34] was > 100 µM (inactive), the GI50 [35] was > 100 µM (inactive) and the GI50 [36] was > 100 µM (inactive). For the same compound, the GI50 [37] was > 100 µM (inactive), the GI50 [38] was > 100 µM (inactive) and the GI50 [39] was > 100 µM (inactive). For the same compound, the GI50 [40] was > 100 µM (inactive), the GI50 [41] was > 100 µM (inactive) and the GI50 [42] was > 100 µM (inactive). For the same compound, the GI50 [43] was > 100 µM (inactive), the GI50 [44] was > 100 µM (inactive) and the GI50 [45] was > 100 µM (inactive). The GI50 [46] was > 100 µM (inactive), the GI50 [47] was > 100 µM (inactive) and the GI50 [48] was > 100 µM (inactive). For the same compound, the GI50 [49] was greater than 100 µM, the GI50 [50] was > 100 µM (inactive) and the GI50 [51] was > 100 µM (inactive). The GI50 [52] was > 100 µM (inactive), the GI50 [53] was > 100 µM (inactive) and the GI50 [54] was > 100 µM (inactive). The GI50 [55] was > 100 µM (inactive), the GI50 [56] was > 100 µM (inactive) and the GI50 [57] was > 100 µM (inactive). For the same compound, the GI50 [58] was > 100 µM (inactive) and the GI50 [59] was > 100 µM (inactive).
`Cc1ccc2c(c1)C(=O)C(Cc1ccccc1C(=O)O)C2` (stereo not drawn) was tested, and the GI50 [1] was > 100 µM (inactive), the GI50 [2] was > 100 µM (inactive) and the GI50 [3] was > 100 µM (inactive). The GI50 [4] was > 100 µM (inactive), the GI50 [5] was > 100 µM (inactive) and the GI50 [6] was > 100 µM (inactive). For the same compound, the GI50 [7] was > 100 µM (inactive), the GI50 [8] was > 100 µM (inactive) and the GI50 [9] was > 100 µM (inactive). The GI50 [10] was > 100 µM (inactive), the GI50 [11] was > 100 µM (inactive) and the GI50 [12] was > 100 µM (inactive). The GI50 [13] was > 100 µM (inactive), the GI50 [14] was > 100 µM (inactive) and the GI50 [15] was > 100 µM (inactive). The GI50 [16] was > 100 µM (inactive), the GI50 [17] was > 100 µM (inactive) and the GI50 [18] was > 100 µM (inactive). The GI50 [19] was > 100 µM (inactive), the GI50 [20] was > 100 µM (inactive) and the GI50 [21] was > 100 µM (inactive). The GI50 [22] was > 100 µM (inactive), the GI50 [23] was > 100 µM (inactive) and the GI50 [24] was > 100 µM (inactive). The GI50 [25] was > 100 µM (inactive), the GI50 [26] was > 100 µM (inactive) and the GI50 [27] was > 100 µM (inactive). For the same compound, the GI50 [28] was > 100 µM (inactive), the GI50 [29] was > 100 µM (inactive) and the GI50 [30] was > 100 µM (inactive). For the same compound, the GI50 [31] was > 100 µM (inactive), the GI50 [32] was > 100 µM (inactive) and the GI50 [33] was > 100 µM (inactive). The GI50 [34] was > 100 µM (inactive), the GI50 [35] was > 100 µM (inactive) and the GI50 [36] was > 100 µM (inactive). The GI50 [37] was > 100 µM (inactive), the GI50 [38] was > 100 µM (inactive) and the GI50 [39] was > 100 µM (inactive). The GI50 [40] was > 100 µM (inactive), the GI50 [41] was > 100 µM (inactive) and the GI50 [42] was > 100 µM (inactive). The GI50 [43] was > 100 µM (inactive), the GI50 [44] was > 100 µM (inactive) and the GI50 [45] was > 100 µM (inactive). The GI50 [46] was > 100 µM (inactive), the GI50 [47] was > 100 µM (inactive) and the GI50 [48] was > 100 µM (inactive). For the same compound, the GI50 [49] was greater than 100 µM, the GI50 [50] was > 100 µM (inactive) and the GI50 [51] was > 100 µM (inactive). The GI50 [52] was > 100 µM (inactive), the GI50 [53] was > 100 µM (inactive) and the GI50 [54] was > 100 µM (inactive). For the same compound, the GI50 [55] was > 100 µM (inactive), the GI50 [56] was > 100 µM (inactive) and the GI50 [57] was > 100 µM (inactive). The GI50 [58] was > 100 µM (inactive) and the GI50 [59] was > 100 µM (inactive).
